The values below come from ChEMBL document CHEMBL1141148, “Antidiabetic activity of passive nonsteroidal glucocorticoid receptor modulators” (J Med Chem, 2005).

A short description of series [1]: Aspartate aminotransferase /alanine aminotransferase levels in ob/ob mice after 30 days of oral dose at 100 mpk b.i.d. Format: ADME. To be noted: mouse, in vivo, 100 mg/kg, 720 h.
A short description of series [2]: Plasma protein binding of tritium labeled compound in mouse plasma was determined. The settings on record: read-out: Protein binding (converted). Format: ADME, cell-free.
For series [3], the species on record is Mus musculus. Briefly: Initial weight of the ob/ob mice before oral treatment at 100 mpk b.i.d. for 14 days. In kind it is functional.
Series [4] can be described thus: Insulin levels in ob/ob mice after 14 days of oral dose at 30 mpk b.i.d. Format: ADME. The settings on record: mouse, in vivo, 30 mg/kg, 336 h.
Series [5] is described as follows: Compound level in liver in ob/ob mice after 13 days of […] mpk oral dose of compound. In kind it is ADME, tissue-based. To be noted: mouse, 30 mg/kg, read-out: Level.
The nature of series [6]: HbA1c levels in ob/ob mice after 30 days of oral dose at 30 mpk b.i.d. Format: ADME. The settings on record: mouse, in vivo, 30 mg/kg, 720 h.
The species named for series [7] is Mus musculus. The series is described as follows: Initial weight of the ob/ob mice before oral treatment at 30 mpk b.i.d. for 14 days. Format: functional.
For series [8], the species on record is Mus musculus. The series is described as follows: Final weight of the ob/ob mice after 14 days of oral treatment at 100 mpk b.i.d. In kind it is functional.
Series [9] in a line: Triglyceride levels in ob/ob mice after 30 days of oral dose at 30 mpk b.i.d. Format: ADME. The settings on record: mouse, in vivo, 30 mg/kg, 720 h.
The nature of series [10]: Cholesterol levels in ob/ob mice after 14 days of oral dose at 100 mpk b.i.d. Format: ADME. To be noted: mouse, in vivo, 100 mg/kg, 336 h.
A short description of series [11]: Free fatty acid (FFA) levels in ob/ob mice after 30 days of oral dose at 30 mpk b.i.d. Format: ADME. To be noted: mouse, in vivo, 30 mg/kg, 720 h.
Series [12] is described as follows: Area under the concentration-time curve in SD rats after 5 mg/kg oral dose. To be noted: rat, in vivo. Format: ADME, organism-based. Further details: dose 5 mg/kg, route oral.
Series [13] in a line: Free fatty acid (FFA) levels in ob/ob mice after 30 days of oral dose at 100 mpk b.i.d. In kind it is ADME. The settings on record: mouse, in vivo, 100 mg/kg, 720 h.
Series [14] in a line: Cholesterol levels in ob/ob mice after 30 days of oral dose at 100 mpk b.i.d. Format: ADME. The settings on record: mouse, in vivo, 100 mg/kg, 720 h.
Series [15] in a line: Plasma protein binding of tritium labeled compound in human plasma was determined. In kind it is ADME, cell-free. To be noted: read-out: Protein binding.
Series [16] can be described thus: Plasma protein binding of tritium labeled compound in rat plasma was determined. In kind it is ADME, cell-free. The settings on record: read-out: Protein binding.
Series [17] in a line: Cholesterol levels in ob/ob mice after 30 days of oral dose at 30 mpk b.i.d. To be noted: mouse, in vivo, 30 mg/kg, 720 h. Format: ADME.
A short description of series [18]: Glycogen levels in ob/ob mice after 14 days of oral dose at 30 mpk b.i.d. The settings on record: mouse, in vivo, 30 mg/kg, 336 h. Format: ADME.
Series [19] is described as follows: Oral bioavailability in SD rats after 5 mg/kg oral dose. To be noted: Sprague-Dawley, rat, in vivo. Format: ADME, organism-based.
Series [20] can be described thus: Glycogen levels in ob/ob mice after 14 days of oral dose at 100 mpk b.i.d. In kind it is ADME. The settings on record: mouse, in vivo, 100 mg/kg, 336 h.
The nature of series [21]: Liver TAT levels in ob/ob mice after 14 days of oral dose at 100 mpk b.i.d. In kind it is ADME, tissue-based. The settings on record: mouse, in vivo, 100 mg/kg, 336 h.
Series [22] can be described thus: Glucose levels in ob/ob mice after 14 days of oral dose at 100 mpk b.i.d. Format: ADME. To be noted: mouse, in vivo, 100 mg/kg, 336 h.
A short description of series [23]: Liver TAT levels in ob/ob mice after 14 days of oral dose at 30 mpk b.i.d. To be noted: mouse, in vivo, 30 mg/kg, 336 h. In kind it is ADME, tissue-based.
Series [24] can be described thus: HbA1c levels in ob/ob mice after 30 days of oral dose at 100 mpk b.i.d. To be noted: mouse, in vivo, 100 mg/kg, 720 h.
Series [25] in a line: Aspartate aminotransferase /alanine aminotransferase levels in ob/ob mice after 30 days of oral dose at 30 mpk b.i.d. Format: ADME. To be noted: mouse, in vivo, 30 mg/kg, 720 h.
Series [26] is described as follows: Insulin levels in ob/ob mice after 14 days of oral dose at 100 mpk b.i.d. The settings on record: mouse, in vivo, 100 mg/kg, 336 h. Format: ADME.
Series [27] can be described thus: Glucose levels in ob/ob mice after 14 days of oral dose at 30 mpk b.i.d. To be noted: mouse, in vivo, 30 mg/kg, 336 h. In kind it is ADME.
The species entered for series [28] is Mus musculus. The series is described as follows: Final weight of the ob/ob mice after 14 days of oral treatment at 30 mpk b.i.d. Format: functional.
The nature of series [29]: Cholesterol levels in ob/ob mice after 14 days of oral dose at 30 mpk b.i.d. In kind it is ADME. To be noted: mouse, in vivo, 30 mg/kg, 336 h.
The nature of series [30]: Free fatty acid (FFA) levels in ob/ob mice after 14 days of oral dose at 30 mpk b.i.d. In kind it is ADME. The settings on record: mouse, in vivo, 30 mg/kg, 336 h.
Series [31] can be described thus: Triglyceride levels in ob/ob mice after 30 days of oral dose at 100 mpk b.i.d. Format: ADME. The settings on record: mouse, in vivo, 100 mg/kg, 720 h.
Series [32] can be described thus: Glucose levels in ob/ob mice after 13 days of oral dose at 10 mpk b.i.d. The settings on record: mouse, in vivo, 10 mg/kg, 312 h. Format: ADME.
Series [33] is filed under the species Mus musculus. The series is described as follows: Initial weight of the ob/ob mice before oral treatment at 10 mpk b.i.d. for 13 days. Format: functional.
A short description of series [34]: Compound level in plasma in ob/ob mice after 13 days of 100 mpk oral dose of compound. Format: ADME. The settings on record: mouse, 100 mg/kg, read-out: Level.
The nature of series [35]: Clearance of the compound in rat after 5 mg/kg iv dose was determined. The settings on record: in vivo.
Series [36] is described as follows: Glucose levels in ob/ob mice after 13 days of oral dose at 100 mpk b.i.d. Format: ADME. The settings on record: mouse, in vivo, 100 mg/kg, 312 h.
Series [37] in a line: Free levels in ob/ob mice after 13 days of oral dose at 100 mpk b.i.d. The settings on record: mouse, in vivo, 100 mg/kg, 312 h. In kind it is ADME.
Series [38] in a line: Insulin levels in ob/ob mice after 13 days of oral dose at 10 mpk b.i.d. The settings on record: mouse, in vivo, 10 mg/kg, 312 h. Format: ADME.
The species entered for series [39] is Mus musculus. The series is described as follows: Final weight of the ob/ob mice after 13 days of oral treatment at 100 mpk b.i.d. Format: functional.
The species entered for series [40] is Mus musculus. Briefly: Initial weight of the ob/ob mice before oral treatment at 100 mpk b.i.d. for 13 days. Format: functional.
Series [41] is described as follows: Aspartate aminotransferase (AST) levels in ob/ob mice after 13 days of oral dose at 10 mpk b.i.d. Format: ADME. The settings on record: mouse, in vivo, 10 mg/kg, 312 h.
A short description of series [42]: Free fatty acid (FFA) levels in ob/ob mice after 13 days of oral dose at 10 mpk b.i.d. Format: ADME. The settings on record: mouse, in vivo, 10 mg/kg, 312 h.
A short description of series [43]: Alanine aminotransferase (ALT) levels in ob/ob mice after 13 days of oral dose at 10 mpk b.i.d. To be noted: mouse, in vivo, 10 mg/kg, 312 h. Format: ADME.
For series [44], the species on record is Mus musculus. The series is described as follows: Final weight of the ob/ob mice after 13 days of oral treatment at 10 mpk b.i.d. In kind it is functional.
The nature of series [45]: Aspartate aminotransferase (AST) levels in ob/ob mice after 13 days of oral dose at 100 mpk b.i.d. Format: ADME. The settings on record: mouse, in vivo, 100 mg/kg, 312 h.

SMILES strings stand for the structures. Values joined by “and” are separate entries in the source; they are usually repeats but may differ in a detail not shown here. Equal values may be shown once.

On to `Cc1c(NS(C)(=O)=O)cccc1N(Cc1ccc(Oc2ccc(F)c(OCC(=O)O)c2)cc1)Cc1ccc(F)cc1F`, for which the Level came out at 303 units/mL in series [1]; 0.025 µg/mL in [4]; 8.9% in series [6]; 2140 µg/mL in series [9]; 1340 µg/mL in series [10]; 0.99 mequiv/L in series [11]. The Level in series [13] is 1.27 mequiv/L; in series [14], 2390 µg/mL; in series [17] it was 2660 µg/mL; in series [18], 54.6 mg/g; in series [20] it was 44.2 mg/g; in series [21], 2.4 nmol ofpHB/min/mgof protein. Further, the Level is 2330 µg/mL in series [22]; 1.7 nmol ofpHB/min/mgof protein in series [23]; 7.7% in series [24]; 395 units/mL in series [25]; 0.0328 µg/mL in series [26]; 3140 µg/mL in series [27]. For the same molecule, the Level in [29] is 2250 µg/mL; in series [30], 0.99 mequiv/L; in series [31] it was 1630 µg/mL. Also, the fraction unbound was 0.003 in series [2], 0.001 in series [15] and 0.001 in [16]. For the same molecule, the Weight in the series filed under Mus musculus [3] is on record as 40 g; in the series filed under Mus musculus [7], 41.5 g; in the series listed under Mus musculus [8], 46.9 g; in the series listed under Mus musculus [28], 49.2 g. The concentration at 312 h in series [5] was 20000 ng/g. In series [12], the AUC worked out at 3850 ng·h/mL. The molecule also registered a bioavailability in series [19] of 40%.
As to `Cc1c(NS(C)(=O)=O)cccc1N(Cc1ccccc1)Cc1ccc(Oc2ccc(OCC(=O)O)cc2)cc1`, the Level in [32] came to 3330 µg/mL; in series [36], 2900 µg/mL; in [37], 1 mequiv/L; in series [38], 0.02 µg/mL; in series [41], 420 units/mL; in [42] it was 1.3 mequiv/L. The Level in series [43] is 786 units/mL and 282 units/mL; in [45], 330 units/mL. For the same molecule, the Weight is listed as 45.4 g in the series filed under Mus musculus [33], 46.6 g in the series filed under Mus musculus [39], 46 g in the series filed under Mus musculus [40] and 49.3 g in the series listed under Mus musculus [44]. For the same molecule, in series [34], the concentration at 312 h was found to be 1.6 µg/mL. In series [35], this molecule came in with a Clearance of 233 mL/min/kg.

By AUC is commonly meant concentration integrated over time. High values mean high exposure, low ones low exposure. The term bioavailability denotes the share of a dose that reaches the circulation, judged against a reference dose that is usually intravenous. A lower bioavailability goes with poor availability.
